The values that follow come from patent US10858364B2, “Imidazopyrazine inhibitors of Bruton's tyrosine kinase” (Acerta Pharma B.V., priority 2016, dated 2020).

Assay [1] deals with TXK (Homo sapiens (Human), UniProt P42681). Put plainly: TXK Z'-LYTE kinase assay. The class given is biochemical. To be noted: 1 h pre-incubation, Km ATP. The procedure:
BMX, TXK, EGFR, ERBB2, ERBB4, JAK3, BLK kinase activity was measured using the Z′-LYTE assay at Thermo Fisher. A 10-point dose response (final concentration in assay ranged from 10 μM to 0.5 nM in 3-fold dilution per dilution step) was generated with 1 h incubation of the test compound with the kinase prior to initiation of the kinase reaction by the addition of ATP. ATP concentration in the assay was Km ATP for the different kinases. IC50 values are determined by curve fitting of the experimental results at Thermo Fisher.

Assay [2] relates to anti-IgM-induced CD69. Put plainly: Human PBMC anti-IgM-induced CD69 assay. Format: cell-based. To be noted: CD19+ B cells, 2 h compound, 18 h anti-IgM, read-out: hPBMC: anti-IgM-induced CD69 EC50. The procedure:
Whole blood was collected in heparin-coated Vacutainer tubes (BD Biosciences, San Jose, Calif.) and used for isolation of PBMCs using Ficoll-Hypaque (Pharmacia, Uppsala, Sweden). Isolated PBMCs were cryopreserved in 90% FCS/10% DMSO until later use.
Cells from cryogenic storage were thawed in a 37° C. water bath, diluted with RPMI/1% FCS, washed 2 times, and then plated at 2×10^5 cells per well in RPMI/10% FCS in 96 well plates.
Serial dilutions […] from 10 mM to 316 nM of test compounds are made in 100% DMSO, followed by a 100-fold dilution into RPMI/1% FCS. For each well, 10 μL was then transferred to the deep well plate containing 90 μL of PBMC cells. […]
Following stimulation with anti-IgM, PBMCs were incubated on ice for 30 min with anti-CD69-FITC, anti-CD19-BV421 (BD Biosciences #555530 and #562440, respectively) and 7AAD (Life Technologies # A1310). Flow cytometry was performed and fluorescence values were obtained from the CD69-FITC channel in CD19+ gated life B cells. EC50 values are determined by curve fitting of the experimental results using GraphPad Prism.
PBMC assay: Cryopreserved PBMC were thawed, washed, and suspended at 2×10^5 cells/well in RPMI+10% FBS in 96-well plates. […] EC50 values were determined by curve fitting of the experimental results using Dotmatics. […]

Assay [3] deals with anti-IgD-induced CD69. Put plainly: Human whole blood anti-IgD-induced CD69 assay. Format: cell-based. Particulars: B-cell, CD19+ B cells, 18h anti-IgD, read-out: hWB: anti-IgD-induced CD69 EC50. The procedure: WB assay: Forty-five μL blood was diluted 1:1 in RPMI+1% FBS and incubated with test compound, as described above. Blood cells were stimulated with 10 μg/mL mouse anti-human anti-IgD antibody (BD Biosciences, final concentration in assay 10 μg/mL) and incubated for 18h. Cells were stained with CD69-FITC, CD86-PE, and CD19-BV421 (BD Biosciences) for 15 minutes at room temperature, followed by RBCs lysis with FACS Lysing Solution (BD Biosciences). Cells were washed 3 times with 1 mL/well PBS+0.5% BSA, followed by flow cytometric analyses. Median fluorescence intensity values for CD69 were obtained from the CD19+B lymphocyte gate using FCSExpress analyses software (De Novo Software). EC50 values were determined by curve fitting of the experimental results using Dotmatics.
The potency of BTK inhibitors in primary B cells can be assessed in assays that evaluate functional changes after BCR-activation in the presence of inhibitor. Inhibition of specific phosphorylated epitopes on signaling proteins and more distal measures of BCR activation such as increased expression of CD86 (B7-2) and CD69 on the cell surface can be measured by flow cytometry (see Report R2013003A). In this study, effects of M27 on CD69 expression were assessed.

In assay [4] the target is BTK (Homo sapiens (Human), UniProt Q06187). Put plainly: BTK enzyme activity, IMAP assay. The class given is biochemical. To be noted: 60 min pre-incubation, 5 μM ATP. The procedure: BTK enzyme activity is measured using the IMAP (immobilized metal ion affinity-based fluorescence polarization) assay as outlined below. BTK enzyme (His-BTK (Millipore catalog #14-552)), is diluted to 0.4 U/mL in KR buffer (10 mM Tris-HCl, 10 mM MgCl2, 0.01% Tween-20, 0.05% NaN3, 1 mM DTT, 2 mM MnCl2, pH 7.2). Serial dilutions log 10 from 2 mM to 63.2 nM of test compounds are made in 100% DMSO. The dilutions in DMSO are then diluted 50-fold in KR-buffer. Final compound concentration range in the assay ranged from 10 μM to 0.316 nM. The assay is performed as follows: 5 μL/well of test compound in KR buffer (final DMSO concentration in the assay is […]) is mixed with 5 µl/well of 0.4 U/mL BTK enzyme (final concentration in the assay is 0.1 U/mL). […] After 60 min incubation at room temperature in the dark the FP signal is read. Fluorescence at 535 nm is measured using parallel and perpendicular filters to determine differences in rotation due to binding of the phosphorylated substrate peptide to the beads. Values are calculated as percentage of the difference in readout (AmPi) of the controls with and without ATP. IC50 values are determined by curve fitting of the experimental results in Dotmatics.
BTK, sequence (Q06187 whole entry): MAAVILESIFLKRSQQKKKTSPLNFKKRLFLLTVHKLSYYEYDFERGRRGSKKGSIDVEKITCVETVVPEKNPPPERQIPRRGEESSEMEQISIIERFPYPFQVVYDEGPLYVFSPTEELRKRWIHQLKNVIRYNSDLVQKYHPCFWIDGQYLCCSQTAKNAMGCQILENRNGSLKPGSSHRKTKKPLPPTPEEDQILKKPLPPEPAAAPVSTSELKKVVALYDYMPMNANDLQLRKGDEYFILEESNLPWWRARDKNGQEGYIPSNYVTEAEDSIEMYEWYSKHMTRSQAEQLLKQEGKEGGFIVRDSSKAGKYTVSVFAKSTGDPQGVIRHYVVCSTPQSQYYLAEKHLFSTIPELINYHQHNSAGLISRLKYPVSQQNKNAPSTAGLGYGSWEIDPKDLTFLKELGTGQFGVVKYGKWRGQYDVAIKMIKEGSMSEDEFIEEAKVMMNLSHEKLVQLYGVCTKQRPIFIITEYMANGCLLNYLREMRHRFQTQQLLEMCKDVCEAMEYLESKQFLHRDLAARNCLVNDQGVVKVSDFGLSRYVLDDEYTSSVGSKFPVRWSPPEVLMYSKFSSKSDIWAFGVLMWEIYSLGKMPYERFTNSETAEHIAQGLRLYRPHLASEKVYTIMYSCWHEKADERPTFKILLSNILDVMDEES

TXK, sequence (P42681 whole entry): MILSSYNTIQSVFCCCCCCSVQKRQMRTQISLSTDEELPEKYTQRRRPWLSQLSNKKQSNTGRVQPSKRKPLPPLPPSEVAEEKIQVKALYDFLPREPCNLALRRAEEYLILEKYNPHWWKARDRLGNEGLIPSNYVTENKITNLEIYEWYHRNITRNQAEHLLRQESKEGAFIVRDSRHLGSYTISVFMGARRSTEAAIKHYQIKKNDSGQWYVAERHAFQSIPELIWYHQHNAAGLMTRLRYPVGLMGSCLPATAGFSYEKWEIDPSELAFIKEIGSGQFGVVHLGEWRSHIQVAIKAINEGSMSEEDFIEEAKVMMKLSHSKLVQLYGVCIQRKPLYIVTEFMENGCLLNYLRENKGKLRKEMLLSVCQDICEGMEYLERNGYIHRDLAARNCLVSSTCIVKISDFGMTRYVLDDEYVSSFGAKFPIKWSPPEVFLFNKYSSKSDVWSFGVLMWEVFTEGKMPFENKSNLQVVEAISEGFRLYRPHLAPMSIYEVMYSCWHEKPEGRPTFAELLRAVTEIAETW

In general, IC50 refers to the concentration that gives 50% inhibition. A higher IC50 goes with weaker potency in that assay. In general, EC50 refers to the midpoint of the concentration-response curve. Consider `CC#CC(=O)NCCCC(=O)c1nc(-c2ccc(C(=O)Nc3ccccn3)c(OC)c2)c2c(N)nccn12` [Formula (II), 4-(8-amino-3-(4-(but-2-ynamido)butanoyl)imidazo[1,5-a]pyrazin-1-yl)-2-methoxy-N-(pyridin-2-yl)benzamide], for which the IC50 in assay [1] amounted to 0.059 µM; in assay [4], 0.0093 µM. Also, the results for the EC50 in assay [2] and in assay [3] were 0.019 ± 0.006 µM and 0.137 ± 0.036 µM, respectively.
As to `CC#CC(=O)NCCCC(=O)c1nc(-c2ccc(C(=O)Nc3ccccn3)cc2)c2c(N)nccn12` [Formula (I), 4-(8-amino-3-(4-(but-2-ynamido)butanoyl)imidazo[1,5-a]pyrazin-1-yl)-N-(pyridin-2-yl)benzamide], the IC50 was 0.567 ± 0.174 µM in assay [1] and 0.005 ± 0.001 µM in assay [4]. In addition, the results for the EC50 in assay [2] and in assay [3] were 0.026 ± 0.016 µM and 0.064 ± 0.006 µM, respectively.
